Values quoted from earlier work in patent US6676951B1, “Host-guest processes and formulations for delivering bio-affecting compounds” (priority 1999, dated 2004).

Conditions: C=O bond external to the ring

pKa of the C=O external to the ring structure: 4.5
SMILES: O=C1O[C@H]([C@@H](O)CO)C(O)=C1O [ascorbic acid, L-ascorbic acid]
